Holding throughout (type): biochemical
For test [1], the target named is wild-type un-phosphorylated FGFR3 protein (Homo sapiens (Human), UniProt P22607). As to the kind of experiment: FGFR Enzymatic Assay (FRET peptide phosphorylation), FGFR3. The settings on record: pre-incubated for 4 hours.
The target of the next test is FGFR1 (Homo sapiens (Human), UniProt P11362). As to the kind of experiment: FGFR Enzymatic Assay (FRET peptide phosphorylation), FGFR1. The settings on record: pre-incubated for 4 hours.
FGFR1, sequence (P11362 22-822): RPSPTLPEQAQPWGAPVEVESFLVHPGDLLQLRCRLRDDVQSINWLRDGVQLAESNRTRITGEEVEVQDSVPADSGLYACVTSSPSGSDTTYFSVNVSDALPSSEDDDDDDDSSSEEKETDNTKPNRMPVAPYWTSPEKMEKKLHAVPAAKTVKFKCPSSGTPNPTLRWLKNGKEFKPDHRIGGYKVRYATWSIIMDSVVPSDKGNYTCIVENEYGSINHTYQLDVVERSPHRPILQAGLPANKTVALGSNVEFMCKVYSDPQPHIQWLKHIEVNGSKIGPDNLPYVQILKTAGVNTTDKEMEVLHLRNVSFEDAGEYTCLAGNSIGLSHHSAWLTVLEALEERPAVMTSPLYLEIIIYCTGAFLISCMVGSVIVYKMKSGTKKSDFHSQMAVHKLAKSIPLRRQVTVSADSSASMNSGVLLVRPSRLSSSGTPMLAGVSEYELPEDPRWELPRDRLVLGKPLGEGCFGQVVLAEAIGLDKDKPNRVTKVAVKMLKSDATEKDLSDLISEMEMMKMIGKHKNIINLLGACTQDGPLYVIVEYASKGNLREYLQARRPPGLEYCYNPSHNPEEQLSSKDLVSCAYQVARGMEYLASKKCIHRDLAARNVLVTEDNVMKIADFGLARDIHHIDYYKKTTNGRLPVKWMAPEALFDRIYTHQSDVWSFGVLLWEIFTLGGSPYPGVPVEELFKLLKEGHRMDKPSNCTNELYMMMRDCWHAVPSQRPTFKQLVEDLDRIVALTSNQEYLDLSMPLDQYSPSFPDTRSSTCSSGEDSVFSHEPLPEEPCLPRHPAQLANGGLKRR
Another test deals with FGFR2 (Homo sapiens (Human), UniProt P21802). As to the kind of experiment: FGFR Enzymatic Assay (FRET peptide phosphorylation), FGFR2.
FGFR2, sequence (P21802 22-821): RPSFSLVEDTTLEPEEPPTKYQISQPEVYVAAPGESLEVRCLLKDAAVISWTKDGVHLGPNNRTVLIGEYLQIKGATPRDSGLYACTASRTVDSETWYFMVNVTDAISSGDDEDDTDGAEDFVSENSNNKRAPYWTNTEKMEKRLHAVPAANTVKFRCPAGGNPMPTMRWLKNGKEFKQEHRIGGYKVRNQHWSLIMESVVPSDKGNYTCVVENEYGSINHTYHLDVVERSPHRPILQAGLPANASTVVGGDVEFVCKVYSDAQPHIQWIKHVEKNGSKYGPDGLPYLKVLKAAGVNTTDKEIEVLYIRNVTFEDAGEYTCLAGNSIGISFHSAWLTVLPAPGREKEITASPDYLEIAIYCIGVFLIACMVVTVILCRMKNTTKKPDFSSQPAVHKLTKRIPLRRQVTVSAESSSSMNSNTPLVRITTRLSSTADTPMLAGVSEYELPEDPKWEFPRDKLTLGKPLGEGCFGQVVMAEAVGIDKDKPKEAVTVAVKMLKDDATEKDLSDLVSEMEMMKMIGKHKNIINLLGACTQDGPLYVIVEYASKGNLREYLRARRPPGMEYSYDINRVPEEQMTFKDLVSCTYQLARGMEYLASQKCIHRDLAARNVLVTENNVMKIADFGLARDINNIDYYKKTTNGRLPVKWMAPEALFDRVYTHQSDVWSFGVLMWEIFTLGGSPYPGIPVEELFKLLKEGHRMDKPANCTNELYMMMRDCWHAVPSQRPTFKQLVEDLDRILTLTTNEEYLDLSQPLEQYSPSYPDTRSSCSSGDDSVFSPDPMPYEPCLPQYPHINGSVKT

Where two headings read alike, the source gives them in different places.

wild-type un-phosphorylated FGFR3 protein, sequence (P22607 23-806): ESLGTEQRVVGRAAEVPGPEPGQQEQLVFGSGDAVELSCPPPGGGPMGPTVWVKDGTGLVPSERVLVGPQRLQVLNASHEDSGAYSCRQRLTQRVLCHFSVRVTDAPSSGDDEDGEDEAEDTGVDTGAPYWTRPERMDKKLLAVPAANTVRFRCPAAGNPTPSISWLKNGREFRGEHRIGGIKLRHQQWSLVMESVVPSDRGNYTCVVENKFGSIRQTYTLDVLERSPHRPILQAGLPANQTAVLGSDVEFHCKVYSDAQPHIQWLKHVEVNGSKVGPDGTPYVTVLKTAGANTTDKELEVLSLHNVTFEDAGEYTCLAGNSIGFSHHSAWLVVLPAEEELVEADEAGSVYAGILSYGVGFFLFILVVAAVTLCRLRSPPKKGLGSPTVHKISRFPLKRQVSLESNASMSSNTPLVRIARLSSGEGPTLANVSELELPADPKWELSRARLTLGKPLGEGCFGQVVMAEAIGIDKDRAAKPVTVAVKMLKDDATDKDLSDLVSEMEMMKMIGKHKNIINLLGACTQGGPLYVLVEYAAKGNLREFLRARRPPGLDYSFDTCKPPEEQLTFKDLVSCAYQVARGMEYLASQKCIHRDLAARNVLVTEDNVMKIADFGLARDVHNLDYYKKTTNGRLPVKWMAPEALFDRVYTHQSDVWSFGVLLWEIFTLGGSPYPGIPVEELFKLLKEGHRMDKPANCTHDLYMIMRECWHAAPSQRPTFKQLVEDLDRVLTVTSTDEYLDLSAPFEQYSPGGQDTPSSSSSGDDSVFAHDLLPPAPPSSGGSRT

Turning to `CNC(=O)c1cccc(-c2cnn3cc(-c4cnn(C)c4)c(OC4CCOC4)nc23)c1` (racemic) [Example 1, N-Methyl-3-(6-(1-methyl-1H-pyrazol-4-yl)-5-((tetrahydrofuran-3-yl)oxy)pyrazolo[1,5-a]pyrimidin-3-yl)benzamide], the concentration for half-maximal inhibition (IC50) (commonly the concentration that gives 50% inhibition) in test [1] is below 10 nM; against FGFR1 it was 30 to 200 nM; at FGFR2 (pre-incubated for 4 hours) it was below 10 nM.

As to `CNC(=O)c1ccc(F)c(-c2cnn3cc(-c4cnn(C)c4)c(OC4CCOC4)nc23)c1` (racemic) [Example 2, 4-Fluoro-N-methyl-3-(6-(1-methyl-1H-pyrazol-4-yl)-5-((tetrahydrofuran-3-yl)oxy)pyrazolo[1,5-a]pyrimidin-3-yl)benzamide], the IC50 in test [1] is below 10 nM; against FGFR1 it was 30 to 200 nM; at FGFR2 (pre-incubated for 4 hours), below 10 nM.

Turning to `CNC(=O)c1cc(C)c(F)c(-c2cnn3cc(-c4cnn(C)c4)c(O[C@H]4CCOC4)nc23)c1` [Example 5, (S)-4-Fluoro-N,3-dimethyl-5-(6-(1-methyl-1H-pyrazol-4-yl)-5-((tetrahydrofuran-3-yl)oxy)pyrazolo[1,5-a]pyrimidin-3-yl)benzamide], the IC50 (in test [1]; against FGFR1; against FGFR2 (pre-incubated for 4 hours)) was below 10 nM each time.

On to `CNC(=O)c1cc(C#N)cc(-c2cnn3cc(-c4cnn(C)c4)c(O[C@H]4CCOC4)nc23)c1` [Example 6, (S)-3-Cyano-N-methyl-5-(6-(1-methyl-1H-pyrazol-4-yl)-5-((tetrahydrofuran-3-yl)oxy)pyrazolo[1,5-a]pyrimidin-3-yl)benzamide], for which the IC50 was below 10 nM in test [1], 10 to 30 nM at FGFR1 and below 10 nM against FGFR2 (pre-incubated for 4 hours).

As to `CNC(=O)c1cncc(-c2cnn3cc(-c4cnn(C)c4)c(N[C@H]4CCOC4)nc23)c1` [Example 7, (S)—N-Methyl-5-(6-(1-methyl-1H-pyrazol-4-yl)-5-((tetrahydrofuran-3-yl)amino)pyrazolo[1,5-a]pyrimidin-3-yl)nicotinamide], the IC50 in test [1] was below 10 nM; on FGFR1, 30 to 200 nM.

With `CNC(=O)c1cc(C#N)cc(-c2cnn3cc(-c4cnn(C)c4)c(N[C@H]4CCOC4)nc23)c1` [Example 8, (S)-3-Cyano-N-methyl-5-(6-(1-methyl-1H-pyrazol-4-yl)-5-((tetrahydrofuran-3-yl)amino)pyrazolo[1,5-a]pyrimidin-3-yl)benzamide], the IC50 is below 10 nM in test [1] and 30 to 200 nM at FGFR1.

For the molecule `CNC(=O)c1cncc(-c2cnn3cc(-c4cnn(C(C)C)c4)c(N[C@H]4CCOC4)nc23)c1` [Example 10, (S)-5-(6-(1-Isopropyl-1H-pyrazol-4-yl)-5-((tetrahydrofuran-3-yl)amino)pyrazolo[1,5-a]pyrimidin-3-yl)-N-methylnicotinamide], the half-inhibitory concentration (IC50) in test [1] is below 10 nM; at FGFR1, 30 to 200 nM.

Consider `CNC(=O)c1cc(F)c(F)c(-c2cnn3cc(-c4cnn(C5CCN(C)CC5)c4)c(O[C@H]4CCOC4)nc23)c1` [Example 11, (S)-3,4-Difluoro-N-methyl-5-(6-(1-(1-methylpiperidin-4-yl)-1H-pyrazol-4-yl)-5-((tetrahydrofuran-3-yl)oxy)pyrazolo[1,5-a]pyrimidin-3-yl)benzamide], for which the IC50 (in test [1]; against FGFR1; on FGFR2 (pre-incubated for 4 hours)) was below 10 nM in each case.

Take `CNC(=O)c1cc(F)c(F)c(-c2cnn3cc(-c4ccc(N5CCN(C)CC5)cc4)c(O[C@H]4CCOC4)nc23)c1` [Example 12, (S)-3,4-Difluoro-N-methy1-5-(6-(4-(4-methylpiperazin-1-yl)pheny1)-5-((tetrahydrofuran-3-yl)oxy)pyrazolo[1,5-a]pyrimidin-3-yl)benzamide]: the 50% inhibitory concentration (IC50) (in test [1]; at FGFR1; against FGFR2) was below 10 nM in each case.

Consider `CNC(=O)c1cc(F)c(F)c(-c2cnn3cc(-c4ccc(N5CCN(C)CC5)nc4)c(O[C@H]4CCOC4)nc23)c1` [Example 13, (S)-3,4-Difluoro-N-methy1-5-(6-(6-(4-methylpiperazin-1-yl)pyridin-3-y1)-5-((tetrahydrofuran-3-yl)oxy)pyrazolo[1,5-a]pyrimidin-3-yl)benzamide], for which the figures for the IC50 (in test [1]; at FGFR1; against FGFR2 (pre-incubated for 4 hours)) were below 10 nM, 10 to 30 nM and below 10 nM, respectively.

Consider `CNC(=O)c1cc(F)c(F)c(-c2cnn3cc(-c4cnn(CCN5CCOCC5)c4)c(O[C@H]4CCOC4)nc23)c1` [Example 14, (S)-3,4-Difluoro-N-methy1-5-(6-(1-(2-morpholinoethyl)-1H-pyrazol-4-y1)-5-((tetrahydrofuran-3-yl)oxy)pyrazolo[1,5-a]pyrimidin-3-yl)benzamide], for which the IC50 (in test [1]; on FGFR1; against FGFR2) was below 10 nM in each case.

Consider `CNC(=O)c1cc(F)c(F)c(-c2cnn3cc(-c4ccc(C)nc4)c(O[C@H]4CCOC4)nc23)c1` [Example 15, (S)-3,4-Difluoro-N-methyl-5-(6-(6-methylpyridin-3-y1)-5-((tetrahydrofuran-3-yl)oxy)pyrazolo[1,5-a]pyrimidin-3-yl)benzamide], for which the results for the IC50 (in test [1]; against FGFR1; on FGFR2) were below 10 nM, 30 to 200 nM and below 10 nM, respectively.

Consider `CNC(=O)c1cc(C)c(F)c(-c2cnn3cc(-c4cnn(C)c4)c(N[C@H]4CCOC4)nc23)c1` [Example 16, (S)-4-Fluoro-N,3-dimethyl-5-(6-(1-methyl-1H-pyrazol-4-yl)-5-((tetrahydrofuran-3-yl)amino)pyrazolo[1,5-a]pyrimidin-3-yl)benzamide], for which the results for the IC50 (in test [1]; at FGFR1; against FGFR2 (pre-incubated for 4 hours)) were below 10 nM, 30 to 200 nM and below 10 nM, respectively.

For the molecule `CNC(=O)c1cc(F)c(F)c(-c2cnn3cc(-c4cnn(C5CN(C)C5)c4)c(O[C@H]4CCOC4)nc23)c1` [Example 17, (S)-3,4-Difluoro-N-methyl-5-(6-(1-(1-methylazetidin-3-yl)-1H-pyrazol-4-yl)-5-((tetrahydrofuran-3-yl)oxy)pyrazolo[1,5-a]pyrimidin-3-yl)benzamide], the half-inhibitory concentration (IC50) (in test [1]; on FGFR1; at FGFR2 (pre-incubated for 4 hours)) was below 10 nM throughout.

As for `CNC(=O)c1cncc(-c2cnn3cc(-c4ccc(N5CCN(C)CC5)cc4)c(O[C@H]4CCOC4)nc23)c1` [Example 18, (S)—N-Methyl-5-(6-(4-(4-methylpiperazin-1-yl)phenyl)-5-((tetrahydrofuran-3-yl)oxy)pyrazolo[1,5-a]pyrimidin-3-yl)nicotinamide], the results for the IC50 (in test [1]; against FGFR1; against FGFR2 (pre-incubated for 4 hours)) were below 10 nM, 30 to 200 nM and below 10 nM, respectively.

Turning to `CNC(=O)c1cncc(-c2cnn3cc(-c4ccc(N5CCN(C)CC5)nc4)c(O[C@H]4CCOC4)nc23)c1` [Example 19, (S)-N-Methyl-5-(6-(6-(4-methylpiperazin-1-yl)pyridin-3-yl)-5-((tetrahydrofuran-3-yl)oxy)pyrazolo[1,5-a]pyrimidin-3-yl)nicotinamide], the values for the 50% inhibitory concentration (IC50) (in test [1]; on FGFR1; against FGFR2 (pre-incubated for 4 hours)) were below 10 nM, 30 to 200 nM and below 10 nM, respectively.

As for `CNC(=O)c1cncc(-c2cnn3cc(-c4ccc(N5CCOCC5)nc4)c(O[C@H]4CCOC4)nc23)c1` [Example 20, (S)-N-Methyl-5-(6-(6-morpholinopyridin-3-yl)-5-((tetrahydrofuran-3-yl)oxy)pyrazolo[1,5-a]pyrimidin-3-yl)nicotinamide], the figures for the IC50 (in test [1]; against FGFR1; on FGFR2 (pre-incubated for 4 hours)) were below 10 nM, 30 to 200 nM and below 10 nM, respectively.

In the case of `CNC(=O)c1cncc(-c2cnn3cc(-c4cnn(C5CC5)c4)c(O[C@H]4CCOC4)nc23)c1` [Example 21, (S)-5-(6-(1-Cyclopropyl-1H-pyrazol-4-yl)-5-((tetrahydrofuran-3-yl)oxy)pyrazolo[1,5-a]pyrimidin-3-yl)-N-methylnicotinamide], the IC50 in test [1] is below 10 nM; against FGFR1 it was 30 to 200 nM; on FGFR2 (pre-incubated for 4 hours), below 10 nM.

For `CNC(=O)c1cncc(-c2cnn3cc(-c4cnn(C5CCC5)c4)c(O[C@H]4CCOC4)nc23)c1` [Example 22, (S)-5-(6-(1-Cyclobutyl-1H-pyrazol-4-yl)-5-((tetrahydrofuran-3-yl)oxy)pyrazolo[1,5-a]pyrimidin-3-yl)-N-methylnicotinamide], the IC50 is below 10 nM in test [1], 10 to 30 nM against FGFR1 and below 10 nM at FGFR2 (pre-incubated for 4 hours).

As to `CNC(=O)c1cc(-c2cnn3cc(-c4cccnc4)c(O[C@H]4CCOC4)nc23)c(F)c(C(F)F)c1` [Example 23, (S)-3-(Difluoromethyl)-4-fluoro-N-methyl-5-(6-(pyridin-3-yl)-5-((tetrahydrofuran-3-yl)oxy)pyrazolo[1,5-a]pyrimidin-3-yl)benzamide], the concentration for half-maximal inhibition (IC50) is below 10 nM in test [1], 30 to 200 nM against FGFR1 and below 10 nM against FGFR2 (pre-incubated for 4 hours).

Consider `CNC(=O)c1cc(-c2cnn3cc(-c4cnc(NC)c(C)c4)c(O[C@H]4CCOC4)nc23)c(F)c(C(F)F)c1` [Example 24, (S)-3-(Difluoromethyl)-4-fluoro-N-methyl-5-(6-(5-methyl-6-(methylamino)pyridin-3-yl)-5-((tetrahydrofuran-3-yl)oxy)pyrazolo[1,5-a]pyrimidin-3-yl)benzamide], for which the figures for the IC50 against FGFR1 and at FGFR2 (pre-incubated for 4 hours) were at least 200 nM and 10 to 30 nM, respectively.

In the case of `CNC(=O)c1cc(C#N)cc(-c2cnn3cc(-c4cccnc4)c(O[C@H]4CCOC4)nc23)c1` [Example 27, (S)-3-Cyano-N-methyl-5-(6-(pyridin-3-yl)-5-((tetrahydrofuran-3-yl)oxy)pyrazolo[1,5-a]pyrimidin-3-yl)benzamide], the half-maximal inhibitory concentration (IC50) was at least 200 nM against FGFR1 and 10 to 30 nM at FGFR2 (pre-incubated for 4 hours).

In the case of `CNC(=O)c1cc(C#N)cc(-c2cnn3cc(-c4cncc(C)c4)c(O[C@H]4CCOC4)nc23)c1` [Example 29, (S)-3-Cyano-N-methyl-5-(6-(5-methylpyridin-3-yl)-5-((tetrahydrofuran-3-yl)oxy)pyrazolo[1,5-a]pyrimidin-3-yl)benzamide], the results for the IC50 at FGFR1 and on FGFR2 (pre-incubated for 4 hours) were at least 200 nM and 30 to 200 nM, respectively.

Regarding `CNC(=O)c1cc(C)c(F)c(-c2cnn3cc(-c4ccnnc4)c(N[C@H]4CCOC4)nc23)c1` [Example 44, (S)-4-Fluoro-N,3-dimethyl-5-(6-(pyridazin-4-yl)-5-((tetrahydrofuran-3-yl)amino)pyrazolo[1,5-a]pyrimidin-3-yl)benzamide], the figures for the concentration for half-maximal inhibition (IC50) against FGFR1 and against FGFR2 (pre-incubated for 4 hours) were at least 200 nM and 10 to 30 nM, respectively.

(Values after patent US11566028B2, “Bicyclic heterocycles as FGFR inhibitors” (Incyte Corporation, priority 2019, dated 2023).)
